The source of these data is patent US20160122386A1, “V1A RECEPTOR AGONISTS” (FERRING B.V., priority 2014, published 2016).

Starred links: 1 amine or outer side, 2 acyl side, 3 side chain; linkers in the order of their positions; H or OH if unused. Positions of bridges follow the written chain, without caps; N, C: chain ends. Non-standard residues stand in square brackets, D forms with d. Residues, ends and D or L forms follow the SMILES beside them. Chains are numbered I, II in the order given. *: point of attachment. Orn((CH2)6NH2) = O=C([C@H](CCCNCCCCCCN[*:3])N[*:1])[*:2]; X3 = O=C([C@H](CCCNCCCCN[*:3])N[*:1])[*:2]; Glutaryl = O=C(CCCC(=O)[*:2])[*:1]; Suc = O=C(CCC(=O)[*:2])[*:1]; PhAc = O=C(Cc1ccccc1)*

The target of the assay is T1, human V1aR (Homo sapiens, UniProt P37288).
T1 construct: expressed in transfected cells
T1 sequence (P37288 whole entry): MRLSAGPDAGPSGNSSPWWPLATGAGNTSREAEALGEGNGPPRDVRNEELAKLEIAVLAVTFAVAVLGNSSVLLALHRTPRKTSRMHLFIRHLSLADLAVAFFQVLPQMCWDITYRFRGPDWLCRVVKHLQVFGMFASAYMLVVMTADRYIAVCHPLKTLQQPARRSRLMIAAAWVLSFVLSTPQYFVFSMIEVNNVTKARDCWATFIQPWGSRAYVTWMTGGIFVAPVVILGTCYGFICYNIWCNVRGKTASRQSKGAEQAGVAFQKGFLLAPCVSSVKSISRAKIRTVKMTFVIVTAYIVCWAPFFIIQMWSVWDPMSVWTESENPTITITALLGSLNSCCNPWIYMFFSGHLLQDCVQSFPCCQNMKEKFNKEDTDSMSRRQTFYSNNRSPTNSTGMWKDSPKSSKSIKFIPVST
Kind of assay: Agonist activity at vasopressin V1a receptors, cell-based FLIPR calcium assay. As to conditions: for Emax: read-out: Efficacy Avg. (%). As for the experimental part:
Efficacy (% MPE) is also determined as the percentage of maximal possible effect. This agonist assay utilizes cells from a stable cell line (HEK-flpin) expressing the vasopressin V1a receptor. Intracellular calcium increase in response to agonist is measured through real-time fluorescence of an intracellular calcium-sensitive dye. Cells are exposed to varying concentrations of test agonist compounds whereupon release of intracellular calcium is measured to determine the agonist potency and efficacy.
The cell line stably expresses the lacZ-Zeocin™ fusion gene and is designed for use with the Flp-In™ expression vector containing the gene of interest and the Flp recombinase expression plasmid, pOG44. The cell line contains a single integrated Flp Recombination Target (FRT) site from pFRT/lacZeo or pFRT/lacZeo2. To generate the HEK-flpin cell line stably expressing the human V1aR, the cells were co-transfected with the Flp-In™ expression vector containing the gene of interest (pcDNA5/FRT-hV1aR) and the Flp recombinase expression plasmid pOG44. Flp recombinase mediates insertion of the Flp-In™ expression vector into the genome at the integrated FRT site through site-specific DNA recombination. Stable cell lines expressing the hV1aR from the Flp-In™ expression vector can be generated by selection using hygromycin B. See Life Technologies/Invitrogen manual, Growth and Maintenance of Flp-In™ Cell Lines, Version E, published Feb.
Efficacy of this compound was set to be 100%. A stock solution of 5 mM was made up in DMSO and stored at −20° C.
HEK-flpin-hV1aR, cmcqV1aR, dV1aR and pV1aR cells were maintained in DMEM containing 10% (v/v) FBS-HI, 4 mM GlutaMAX™-I, 25 μg/mL Hygromycin B at 37° C. under 5% CO2 in a humidified atmosphere. Subculture was achieved by splitting semi-confluent cultures 1:3 to 1:6.
All compounds were made up in 100% DMSO at 10 mM stock concentrations and stored at −20° C. The compounds were allowed to thaw just before the assay. […] Typical dilution procedure of 10× final assay concentration involved a 1:100 top dilution (e.g., 2 μl Stock into 198 μl dilution medium) followed by half-log serial dilutions (e.g., 25.3 μl into 54.7 μl dilution medium supplemented with 1% DMSO (v/v)). (Dilution media consisted of phenol-red free DMEM containing 10% FBS-HI, 4 mM GlutaMAX™-I). […] The final DMSO concentration in the assay was 0.1%.
Loading Buffer was prepared by dissolving 1 vial of Calcium 4 Assay reagent in 100 mL of 1× HBSS-20 mM Hepes buffer.
The cells were loaded with Loading Buffer as follows. Cell plates were removed from the incubator and 20 μl of Loading Buffer containing probenecid (2.5 mM) was added to each well. The cells were incubated for 1 hr at 37° C. under 5% CO2 in a humidified atmosphere. The calcium image was obtained as follows.
The cell plates were transferred to FLIPR Tetra, along with a 384 well V-bottom plate pre-loaded with half-log concentrations of test compounds at 10× final test concentrations. The remaining steps of the assay were carried forward by FLIPR Tetra. A baseline reading was taken at 1-second (s) intervals for 5s followed by the addition of 5 μl of 10× compounds (test, reference, or Blank). The agonist-induced fluorescence signal was then measured for 180 s with initial 120 readings at 1-second intervals followed by 20 readings at 3-second intervals. Overall, each well in the FLIPR assay was composed of the following components in a total volume of 50 μl: 20 μl cells; 20 μl Calcium 4 Loading Buffer; […] 10× test or reference compound.

As a reminder, the EC50 is the concentration that produces a half-maximal response. As to `CC[C@H](C)[C@@H]1NC(=O)[C@H](Cc2ccccc2)NC(=O)[C@@H](N)CSSC[C@@H](C(=O)N2CCC[C@H]2C(=O)N[C@@H](CCCNCCCCCCNC(=O)CCC(=O)NCCCC[C@H](NC(=O)[C@H](CCCNC(=N)N)NC(=O)[C@@H]2CCCN2C(=O)[C@H](CCCNC(=N)N)NC(=O)[C@H](CC(N)=O)NC(=O)[C@H](CCC(N)=O)NC(=O)[C@H](Cc2ccccc2)NC(=O)[C@@H](Cc2ccc(OC)cc2)NC(=O)Cc2ccccc2)C(N)=O)C(=O)NCC(N)=O)NC(=O)[C@H](CC(N)=O)NC(=O)[C@H](CCC(N)=O)NC1=O` [Compound 1] (I: H-CFIQNCP[Orn((CH2)6NH2)]G-NH2 / II: PhAc-[dY](Me)FQNRPRK-NH2; disulfide I:1-I:6; linker I:8-II:8 via Suc), the EC50 came to 1 nM and the Emax was 30%.
The corresponding values for `CC[C@H](C)[C@@H]1NC(=O)[C@H](Cc2ccccc2)NC(=O)[C@@H](N)CSSC[C@@H](C(=O)N2CCC[C@H]2C(=O)N[C@@H](CCCNCCCCCNC(=O)CC[C@H](NC(=O)[C@H](CCCNC(=N)N)NC(=O)[C@@H]2CCCN2C(=O)[C@H](C)NC(=O)[C@H](CC(N)=O)NC(=O)[C@H](CCC(N)=O)NC(=O)[C@H](Cc2ccccc2)NC(=O)[C@@H](Cc2ccc(OC)cc2)NC(=O)Cc2ccccc2)C(N)=O)C(=O)NCC(N)=O)NC(=O)[C@H](CC(N)=O)NC(=O)[C@H](CCC(N)=O)NC1=O` [Compound 2] are 0.69 nM and 52%.
The corresponding values for `CC[C@H](C)[C@@H]1NC(=O)[C@H](Cc2ccccc2)NC(=O)[C@@H](N)CSSC[C@@H](C(=O)N2CCC[C@H]2C(=O)N[C@@H](CCCNCCCCNC(=O)CCCC(=O)NCCCC[C@H](NC(=O)[C@H](CCCNC(=N)N)NC(=O)[C@@H]2CCCN2C(=O)[C@H](CCCNC(=N)N)NC(=O)[C@H](CC(N)=O)NC(=O)[C@H](CCC(N)=O)NC(=O)[C@H](Cc2ccccc2)NC(=O)[C@@H](Cc2ccc(OC)cc2)NC(=O)Cc2ccccc2)C(N)=O)C(=O)NCC(N)=O)NC(=O)[C@H](CC(N)=O)NC(=O)[C@H](CCC(N)=O)NC1=O` [Compound 3] (I: H-CFIQNCP[X3]G-NH2 / II: PhAc-[dY](Me)FQNRPRK-NH2; disulfide I:1-I:6; linker I:8-II:8 via Glutaryl) are 2.9 nM and 39%.
As to `CC[C@H](C)[C@@H]1NC(=O)[C@H](Cc2ccccc2)NC(=O)[C@@H](N)CSSC[C@@H](C(=O)N2CCC[C@H]2C(=O)N[C@@H](CCCNCCCCCCNC(=O)CC[C@H](NC(=O)[C@H](CCCNC(=N)N)NC(=O)[C@@H]2CCCN2C(=O)[C@H](C)NC(=O)[C@H](CC(N)=O)NC(=O)[C@H](CCC(N)=O)NC(=O)[C@H](Cc2ccccc2)NC(=O)[C@@H](Cc2ccc(OC)cc2)NC(=O)Cc2ccccc2)C(N)=O)C(=O)NCC(N)=O)NC(=O)[C@H](CC(N)=O)NC(=O)[C@H](CCC(N)=O)NC1=O` [Compound 4], the EC50 is 1.5 nM and the Emax is 24%.
Take `CC[C@H](C)[C@@H]1NC(=O)[C@H](Cc2ccccc2)NC(=O)[C@@H](N)CSSC[C@@H](C(=O)N2CCC[C@H]2C(=O)N[C@@H](CCCNCCCCCCNC(=O)CCCCNC(=O)CC[C@H](NC(=O)[C@H](CCCNC(=N)N)NC(=O)[C@@H]2CCCN2C(=O)[C@H](C)NC(=O)[C@H](CC(N)=O)NC(=O)[C@H](CCC(N)=O)NC(=O)[C@H](Cc2ccccc2)NC(=O)[C@@H](Cc2ccc(OC)cc2)NC(=O)Cc2ccccc2)C(N)=O)C(=O)NCC(N)=O)NC(=O)[C@H](CC(N)=O)NC(=O)[C@H](CCC(N)=O)NC1=O` [Compound 5]: the EC50 came out at 1.3 nM and the Emax is 28%.
The corresponding values for `CC[C@H](C)[C@@H]1NC(=O)[C@H](Cc2ccccc2)NC(=O)[C@@H](N)CSSC[C@@H](C(=O)N2CCC[C@H]2C(=O)N[C@@H](CCCNCCCCCC(=O)NCCCC[C@H](NC(=O)[C@H](CCCNC(=N)N)NC(=O)[C@@H]2CCCN2C(=O)[C@H](CCCNC(=N)N)NC(=O)[C@H](CC(N)=O)NC(=O)[C@H](CCC(N)=O)NC(=O)[C@H](Cc2ccccc2)NC(=O)[C@@H](Cc2ccc(OC)cc2)NC(=O)Cc2ccccc2)C(N)=O)C(=O)NCC(N)=O)NC(=O)[C@H](CC(N)=O)NC(=O)[C@H](CCC(N)=O)NC1=O` [Compound 6] are 2.5 nM and 28%.
The corresponding values for `CC[C@H](C)[C@@H]1NC(=O)[C@H](Cc2ccccc2)NC(=O)[C@@H](N)CSSC[C@@H](C(=O)N2CCC[C@H]2C(=O)N[C@@H](CCCNCCCC(=O)NCCCC[C@H](NC(=O)[C@H](CCCNC(=N)N)NC(=O)[C@@H]2CCCN2C(=O)[C@H](CCCNC(=N)N)NC(=O)[C@H](CC(N)=O)NC(=O)[C@H](CCC(N)=O)NC(=O)[C@H](Cc2ccccc2)NC(=O)[C@@H](Cc2ccc(OC)cc2)NC(=O)Cc2ccccc2)C(N)=O)C(=O)NCC(N)=O)NC(=O)[C@H](CC(N)=O)NC(=O)[C@H](CCC(N)=O)NC1=O` [Compound 7] are over 10000 nM and 24%.
On to `CC[C@H](C)[C@@H]1NC(=O)[C@H](Cc2ccccc2)NC(=O)[C@@H](N)CSSC[C@@H](C(=O)N2CCC[C@H]2C(=O)N[C@@H](CCCNCCCCCC(=O)NCCCC[C@H](NC(=O)[C@H](CCCNC(=N)N)NC(=O)[C@@H]2CCCN2C(=O)[C@H](C)NC(=O)[C@H](CC(N)=O)NC(=O)[C@H](CCC(N)=O)NC(=O)[C@H](Cc2ccccc2)NC(=O)[C@@H](Cc2ccc(OC)cc2)NC(=O)Cc2ccccc2)C(N)=O)C(=O)NCC(N)=O)NC(=O)[C@H](CC(N)=O)NC(=O)[C@H](CCC(N)=O)NC1=O` [Compound 8], for which the concentration giving a half-maximal response (EC50) is over 10000 nM and the Emax stood at 50%.
The corresponding values for `CC[C@H](C)[C@@H]1NC(=O)[C@H](Cc2ccccc2)NC(=O)[C@@H](N)CSSC[C@@H](C(=O)N2CCC[C@H]2C(=O)N[C@@H](CCCNCCCCCC(=O)NCCCC[C@H](NC(=O)[C@H](CCCNC(=N)N)NC(=O)[C@@H]2CCCN2C(=O)[C@H](CC(C)C)NC(=O)[C@H](CC(N)=O)NC(=O)[C@H](CCC(N)=O)NC(=O)[C@H](Cc2ccccc2)NC(=O)[C@@H](Cc2ccc(OC)cc2)NC(=O)Cc2ccccc2)C(N)=O)C(=O)NCC(N)=O)NC(=O)[C@H](CC(N)=O)NC(=O)[C@H](CCC(N)=O)NC1=O` [Compound 9] are over 10000 nM and 34%.
For `CC[C@H](C)[C@@H]1NC(=O)[C@H](Cc2ccccc2)NC(=O)[C@@H](N)CSSC[C@@H](C(=O)N2CCC[C@H]2C(=O)N[C@@H](CCCNCCCCNC(=O)CC[C@H](NC(=O)[C@H](CCCNC(=N)N)NC(=O)[C@@H]2CCCN2C(=O)[C@H](CCCNC(=N)N)NC(=O)[C@H](CC(N)=O)NC(=O)[C@H](CCC(N)=O)NC(=O)[C@H](Cc2ccccc2)NC(=O)[C@@H](Cc2ccc(OC)cc2)NC(=O)Cc2ccccc2)C(N)=O)C(=O)NCC(N)=O)NC(=O)[C@H](CC(N)=O)NC(=O)[C@H](CCC(N)=O)NC1=O` [Compound 10], in that order: over 10000 nM and 26%.
As for `CC[C@H](C)[C@@H]1NC(=O)[C@H](Cc2ccccc2)NC(=O)[C@@H](N)CSSC[C@@H](C(=O)N2CCC[C@H]2C(=O)N[C@@H](CCCNCCCCCNC(=O)CC[C@H](NC(=O)[C@H](CCCNC(=N)N)NC(=O)[C@@H]2CCCN2C(=O)[C@H](CO)NC(=O)[C@H](CC(N)=O)NC(=O)[C@H](CCC(N)=O)NC(=O)[C@H](Cc2ccccc2)NC(=O)[C@@H](Cc2ccc(OC)cc2)NC(=O)Cc2ccccc2)C(N)=O)C(=O)NCC(N)=O)NC(=O)[C@H](CC(N)=O)NC(=O)[C@H](CCC(N)=O)NC1=O` [Compound 11], the EC50 was found to be 2.2 nM and the Emax amounted to 51%.
For `CC[C@H](C)[C@@H]1NC(=O)[C@H](Cc2ccccc2)NC(=O)[C@@H](N)CSSC[C@@H](C(=O)N2CCC[C@H]2C(=O)N[C@@H](CCCNCCCCCNC(=O)CC[C@H](NC(=O)[C@H](CCCNC(=N)N)NC(=O)[C@@H]2CCCN2C(=O)[C@H](CCCCN)NC(=O)[C@H](CC(N)=O)NC(=O)[C@H](CCC(N)=O)NC(=O)[C@H](Cc2ccccc2)NC(=O)[C@@H](Cc2ccc(OC)cc2)NC(=O)Cc2ccccc2)C(N)=O)C(=O)NCC(N)=O)NC(=O)[C@H](CC(N)=O)NC(=O)[C@H](CCC(N)=O)NC1=O` [Compound 12], in that order: 2.3 nM and 39%.
